Data as given in US9994552B2, “Compositions useful for treating disorders related to kit” (BLUEPRINT MEDICINES CORPORATION, priority 2013, dated 2018).

Key:
[1] = target: wild type Kit (Homo sapiens (Human), UniProt P10721); experiment: Kit wild type assay at Km (Caliper electrophoretic mobility shift); format: biochemical; details: wild type Kit 2 nM, 400 uM ATP (Km), 1 uM Srctide, 25 C, 90 minutes; read-out: INH-KITWT ENZ-KM IC50 (nM) (Num)
Procedure: (§1) In order to assess the activity of chemical compounds against the relevant kinase of interest, the Caliper LifeSciences electrophoretic mobility shift technology platform is used. Fluorescently labeled substrate peptide is incubated in the presence of kinase and ATP so that a […] proportion of the peptide is phosphorylated. At the end of the reaction, the mix of phosphorylated (product) and non-phosphorylated (substrate) peptides are passed through the microfluidic system of the Caliper EZ Reader 2, under an applied potential difference. The presence of the phosphate group on the product peptide provides a difference in mass and charge between those of the substrate peptide, resulting in a separation of the substrate and product pools in the sample. As the pools pass a LEDS within the instrument, these pools are detected and resolved as separate peaks. The ratio between these peaks therefore reflects the activity of the chemical matter at that concentration in that well, under those conditions.
(§2) The reaction was stopped by the addition of 70 ul of Stop buffer (100 mM HEPES pH 7.5, 0.015% Brij 35, 35 mM EDTA and 0.2% of Coating Reagent 3 (Caliper Lifesciences)). The plate was then read on a Caliper EZReader 2 (protocol settings: −1.9 psi, upstream voltage −700, downstream voltage −3000, post sample sip 35 s).

[2] = target: D816V Kit (Homo sapiens (Human), UniProt P10721, D816V); experiment: Kit D816V assay at Km (Caliper electrophoretic mobility shift); format: biochemical; details: for IC50: D816V Kit 0.5 nM, 15 uM ATP (Km), 1 uM Srctide, 25 C, 90 minutes, read-out: INH-KITD816V ENZ-KM IC50 (nM) (Num)
Procedure: as §1, §2

Chain of D816V Kit (P10721 26-976 D816V): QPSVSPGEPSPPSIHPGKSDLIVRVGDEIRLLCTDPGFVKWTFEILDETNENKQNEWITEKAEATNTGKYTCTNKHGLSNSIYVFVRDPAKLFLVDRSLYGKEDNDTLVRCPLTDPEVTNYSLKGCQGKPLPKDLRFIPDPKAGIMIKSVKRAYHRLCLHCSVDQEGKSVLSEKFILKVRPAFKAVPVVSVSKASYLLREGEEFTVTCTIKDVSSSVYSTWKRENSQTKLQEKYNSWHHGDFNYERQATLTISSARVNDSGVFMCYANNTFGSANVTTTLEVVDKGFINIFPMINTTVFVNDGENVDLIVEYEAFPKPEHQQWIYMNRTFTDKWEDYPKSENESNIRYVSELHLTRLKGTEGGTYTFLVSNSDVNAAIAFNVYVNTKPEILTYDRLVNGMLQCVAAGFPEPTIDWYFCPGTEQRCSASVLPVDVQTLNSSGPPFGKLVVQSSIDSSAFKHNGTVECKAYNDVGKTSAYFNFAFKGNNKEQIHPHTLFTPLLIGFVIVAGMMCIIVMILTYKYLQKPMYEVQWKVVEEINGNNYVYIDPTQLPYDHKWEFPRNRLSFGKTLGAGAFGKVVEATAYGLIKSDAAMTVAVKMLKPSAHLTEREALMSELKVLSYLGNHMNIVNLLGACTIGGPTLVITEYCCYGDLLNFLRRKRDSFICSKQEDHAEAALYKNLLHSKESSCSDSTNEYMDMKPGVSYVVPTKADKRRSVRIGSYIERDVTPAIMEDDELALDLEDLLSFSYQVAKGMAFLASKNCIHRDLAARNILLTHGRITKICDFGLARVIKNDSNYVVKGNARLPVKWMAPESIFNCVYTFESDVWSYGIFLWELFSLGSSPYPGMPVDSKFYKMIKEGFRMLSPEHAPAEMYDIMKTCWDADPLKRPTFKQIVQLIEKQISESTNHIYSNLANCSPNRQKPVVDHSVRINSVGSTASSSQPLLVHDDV
Chain of wild type Kit (P10721 26-976): as the sequence (P10721 26-976 D816V) above, with V791D counted along it

Compound | IC50 [1] [nM] | IC50 [2] [nM] | times more potent against the D816V mutant than against the wild-type Kit ([2]; D816V Kit versus wild-type Kit, enzyme assays at Km)
COc1cc2ncnc(N3CCN(c4ncc(Cc5ccccc5)cn4)CC3)c2cc1OCC1CN(C)C1 [Compound 90] | 11 to 100 | < 1 | –
COc1cc2ncnc(N3CCN(c4ncc(Cc5ccccc5)cn4)CC3)c2cc1OCC1(F)CCN(C)CC1 [Compound 131] | < 10 | < 1 | –
COc1cc2ncnc(N3CCN(c4ncc(Cc5ccccc5)cn4)CC3)c2cc1OC1CCN(C)C1 (centres unmarked) [Compound 92] | 100 to 1000 | 1.01 to 10 | –
COc1ccc(COc2cnc(N3CCN(c4ncnc5cc(OC)c(OC)cc45)CC3)nc2)cc1 [Compound 77] | > 1000 | 10 to 100 | at least 100 times
COc1cc2c(N3CCN(c4ncc(Cc5ccccc5)cn4)CC3)ncnc2cc1OCC1(C)COC1 [Compound 93] | 11 to 100 | 1.01 to 10 | –
COc1cc2ncnc(N3CCN(c4nccc(Cc5ccccc5)n4)CC3)c2cc1OC [Compound 12] | > 1000 | > 100 | –
COc1cc2ncnc(N3CCN(c4ncc(OCc5ccccc5)cn4)[C@H](C)C3)c2cc1OC [Compound 60] | 100 to 1000 | 10 to 100 | –
COc1cc2ncnc(N3CCN(c4ncc(Nc5ccc(F)cc5)cn4)CC3)c2cc1OCC1CCN(C)CC1 [Compound 132] | 11 to 100 | 1.01 to 10 | –
COc1cc2ncnc(N3C[C@H]4CC[C@@H](C3)N4c3ncc(Cc4ccccc4)cn3)c2cc1OC [Compound 48, 4-((1R,5S)-8-(5-Benzylpyrimidin-2-yl)-3,8-diazabicyclo[3.2.1]octan-3-yl)-6,7-dimethoxyquinazoline] | 11 to 100 | 1.01 to 10 | –
COc1cc2c(N3CCN(c4ncc(Cc5ccccc5)cn4)CC3)ncnc2cc1OC(F)F [Compound 72] | – | 10 to 100 | –
COc1cc2ncnc(N3CCN(c4ncc(OCc5cccs5)cn4)CC3)c2cc1OC [Compound 43] | 100 to 1000 | 1.01 to 10 | –
COc1cc2ncnc(N3CCN(c4ncc(Nc5ccc(F)c(F)c5)cn4)CC3)c2cc1OC [Compound 71] | 100 to 1000 | 1.01 to 10 | –
CCOc1cc2ncnc(N3CCN(c4ncc(Cc5ccccc5)c(N)n4)CC3)c2cc1OCC1CCN(C)CC1 [Compound 135] | < 10 | < 1 | –
COc1cc2ncnc(N3CCN(c4ncc(Cc5ccccc5)c(=O)[nH]4)CC3)c2cc1OC[C@@H]1CCCN(C)C1 [Compound 128] | 11 to 100 | 1.01 to 10 | –
COc1cc2ncnc(N3CCN(c4ncc(Cc5ccccc5)cn4)CC3)c2cc1OC[C@@H]1CNCCO1 [Compound 106] | 11 to 100 | 1.01 to 10 | –
COc1cc2ncnc(N3CCN(c4ncc(Nc5ccc(C)cc5)cn4)CC3)c2cc1OC [Compound 31] | 100 to 1000 | 1.01 to 10 | –
COc1cc2ncnc(N3CCN(c4ncc(OCc5cc(Cl)cc(Cl)c5)cn4)CC3)c2cc1OC [Compound 103] | > 1000 | > 100 | –
COc1cc2ncnc(N3CCN(c4ncc(Cc5ccccc5)c(=O)[nH]4)CC3)c2cc1OCC1CCN(C)CC1 [Compound 127] | < 10 | < 1 | –
COc1cc2ncnc(N3CCN(c4ncc(Cc5ccccc5)cn4)CC3)c2cc1OCC1CCCNC1 (centres unmarked) [Compound 97] | 11 to 100 | < 1 | –
COc1cc2ncnc(N3CCN(c4ncc(NCc5ccc(C)cc5)cn4)CC3)c2cc1OC [Compound 53] | 100 to 1000 | 10 to 100 | –
c1ccc(Cc2cnc(N3CCN(c4ncnc5c4CNC5)CC3)nc2)cc1 [Compound 2] | > 1000 | > 100 | –
COc1cc2ncnc(N3CCN(c4ncc(NCc5cccc(C)c5)cn4)CC3)c2cc1OC [Compound 55] | > 1000 | 10 to 100 | –
COc1cc2ncnc(N3CCN(c4ncc(CCc5ccccc5)cn4)CC3)c2cc1OC [Compound 24] | 100 to 1000 | 1.01 to 10 | –
COc1cc2ncnc(N3CCN(c4ncc(Cc5cccc(OC(F)(F)F)c5)cn4)CC3)c2cc1OC [Compound 101] | 100 to 1000 | 10 to 100 | –
COc1cc2ncnc(N3CCN(c4ncc(Nc5ccncc5)cn4)CC3)c2cc1OC [Compound 17] | > 1000 | > 100 | –
